Measured values from patent publication US5202355A, “Method of inhibiting aldose reductase in diabetic hosts using phenol derivatives” (Takasago Institute for Interdisciplinary Science Inc., priority 1991, dated 1993).
Read-outs that look alike come from different tables or passages of the source.

What was measured:
[1] = test system: galactosemic cataract formation; conditions: experimental rats; cited from earlier work
[2] = test system: motor nerve conduction velocity (MNCV); conditions: short and long-term streptozotocin induced diabetes in rats; cited from earlier work
[3] = test system: peripheral nerve deterioration; conditions: diabetic patients suffering from peripheral nerve deterioration; cited from earlier work
aldose reductase = molecular target: T1, aldose reductase (Bos taurus, UniProt P16116); assay: Aldose reductase inhibition (percent inhibition of enzyme activity); format: biochemical, calf
T1 construct: The enzyme was isolated from the homogenized preparation by successive chromatography; from tissue; host or cells: calf eye lens
Procedure: The following phenols were tested for their ability to inhibit aldose reductase enzyme activity.
The assay was conducted essentially according to the procedure of S. Hayman, et al., as described in the Journal of Biological Chemistry, 240, 877 (1965).
The preparation of aldose reductase was conducted according to the procedure of K. Inagaki et al., ARchives of Biochemistry and Biophysics, 216, 337 (1982). Briefly, lenses were removed from calf eyes and homogenized. The enzyme was isolated from the homogenized preparation by successive chromatography on a DEAE-sephacel column (Pharmacia LKB Biotechnology, Piscataway, N.J.), an affinity column (Matrex gel red A; Amicon Co., Danvers, Mass.), and a Sephadex G-75 column (Pharmacia LKB Biotechnology, Piscataway, N.J.).
A reaction mixture of 0.1M sodium phosphate buffer (pH 6.2), 0.4M ammonium sulfate, 10 mm glyceraldehyde, 0.16 mm NADPH, and 10 ml propylene glycol solution containing the purified enzyme was prepared. The test compound was incubated with the enzyme in the reaction mixture.
Aldose reductase activity was assayed spectrophotometrically by determining the decrease in the NADPH concentration at 340 nm in a Beckman DU-64 spectrophotometer (Beckman, Palo Alto, Calif.).
The percent inhibition of each compound was calculated by comparing the reaction rate of the solution containing substrate and the compound at a given concentration with that of the control solution containing only substrate.

[4] = molecular target: calf lens aldose reductase; conditions: cited from earlier work
[5] = 10^-6 M (× 3.8), read-out: Percent Inhibition (%)
[6] = 10^-6 M (× 7.5), read-out: Percent Inhibition (%)
[7] = 10^-6 M (× 1.9), read-out: Percent Inhibition (%)

For `O=C(O)CN1C(=O)c2cccc3cccc(c23)C1=O` [Alrestatin, 1,3-dioxo-1H-benz (de) isoquinoline-2(3H)-acetic acid], the galactosemic cataract formation [1] is listed as “successfully prevent galactosemic cataract formation”, the sugar polyol accumulations [1] is listed as “blocking the sugar polyol accumulations” and the “motor nerve conduction velocity (MNCV)” value [2] is listed as “improve motor nerve conduction velocity (MNCV)”. For the same compound, the “improvement in diabetic patients” value [3] was “no improvement was observed”.
`CCCCCCCCCCCCCCCc1cccc(O)c1C(=O)O` [Compound 1, 6-Pentadecylsalicylic Acid] gave an inhibition (aldose reductase; [5]) of 27% and an inhibition (aldose reductase; [6]) of 40%.
In the case of `CCCCCC/C=C\CCCCCCCc1cccc(O)c1C(=O)O` [Compound 2, 6-[8(z)-pentadecenyl]salicylic acid], the inhibition (aldose reductase; [7]) is reported as 9%, the inhibition (aldose reductase; [5]) is reported as 42% and the inhibition (aldose reductase; [6]) is reported as 91%.
Compound `CCC/C=C\C/C=C\CCCCCCCc1cccc(O)c1C(=O)O` [Compound 3, 6-[8(z),11(z)-pentadecadienyl]salicylic acid] has an inhibition (aldose reductase; [7]) of 1%, an inhibition (aldose reductase; [5]) of 18% and an inhibition (aldose reductase; [6]) of 91%.
In the case of `C=CC/C=C\C/C=C\CCCCCCCc1cccc(O)c1C(=O)O` [Compound 4, 6-[8(z),11(z),14-pentadecatrienyl]salicylic acid], the inhibition (aldose reductase; [7]) is reported as 47%, the inhibition (aldose reductase; [5]) is reported as 60% and the inhibition (aldose reductase; [6]) is reported as 77%.
Compound `CCC/C=C\C/C=C\CCCCCCCc1cc(O)c(C)c(O)c1` [Compound 11, 2-methyl-5-[8(z),11(z)-pentadecadienyl]resorcinol] has an inhibition (aldose reductase; [5]) of 22% and an inhibition (aldose reductase; [6]) of 43%.
With `C=CC/C=C\C/C=C\CCCCCCCc1cc(O)c(C)c(O)c1` [Compound 12, 2-methyl-5-[8(z),11(z),14-pentadecatrienyl]resorcinol] the inhibition (aldose reductase; [5]) was 28% and the inhibition (aldose reductase; [6]) was 53%.
Compound `C=CC/C=C\C/C=C\CCCCCCCc1cc(O)cc(O)c1` [Compound 16, 5-[8(z),11(z),14-pentadecatrienyl]resorcinol] has an inhibition (aldose reductase; read-out: Percent Inhibition (%), 10^-6 M (× 1.9)) of 12%, an inhibition (aldose reductase; read-out: Percent Inhibition (%), 10^-6 M (× 3.8)) of 16% and an inhibition (aldose reductase; read-out: Percent Inhibition (%), 10^-6 M (× 7.5)) of 85%.
For `O=C1NC(=O)[C@@]2(CCOc3ccc(F)cc32)N1` [sorbinil, d-6-fluoro-spiro [chroman-4,4'-imidazolidine]-2',5'-dione], the IC50 ([4]; calf lens aldose reductase, read-out: IC50 concentration) is given as about 0.5 µM, the “aldose reductase inhibitor potency (in words)” value [4] is given as “one of the most potent inhibitors heretofore investigated” and the “motor nerve conduction velocity (MNCV)” value [2] is given as “improve motor nerve conduction velocity (MNCV)”. For the same compound, the “improvement in diabetic patients” value [3] was “no beneficial effect was observed”.
